Source: patent publication US9764014B2, “Use of toll-like receptor ligands as adjuvants to vaccination therapy for brain tumors” (Cedars-Sinai Medical Center, priority 2008, dated 2017)

Legend:
[1] = tested on: primary BMDC; experiment: IL-6 ELISA from primary BMDC derived from MyD88−/− and littermate controls; assay type: cell-based, mice; details: MyD88−/− DC compared to BMDC from wild-type littermate controls; LPS 100 ng/ml or 10 ng/ml with GL26 lysate
Method: Briefly, BMDCs were cultured in 24-well plates at 3×10^5 cells/ml and exposed to TLR ligands and lysate for 24 hours. Cell culture media were collected for ELISA analysis against IL-6, TNF-α and IL-12. Three independent experiments with at least three replicates per experiment were performed.
While the inventors provide evidence that GL26 tumor cells and TLR ligands activate primary BMDC. […] It is possible that the GL26 tumor cell activation is signaling through TLRs or at least through downstream signaling molecule MyD88. Therefore, primary dendritic cells from MyD88−/− and Wild-type controls were isolated and exposed to GL26 lysate and TLR ligand LPS at 100 ng/ml or 10 ng/ml. The inventors believe that LPS activation in MyD88−/− DC will not show up-regulation of secreted IL-6 protein as measured by ELISA. […] Furthermore, no significant difference exists between MyD88−/− and wild-type derived BMDC exposed to brain lysate (FIG. 10).
Primary BMDCs were isolated from the bone marrow of femurs of euthanized MyD88−/− and their +/+ littermate controls as described above. BMDCs were activated using 1) GL26 tumor lysate alone; 2) TLR ligands (Pam3cys (50 μg/ml) or LPS (50 ng/ml) or CpG ODN (5 μM) and tumor lysate for each; 3) Treatment of DCs with brain lysate alone may also serves as a control condition.

[2] = tested on: primary dendritic cells from MyD88−/− and wild-type controls; experiment: ELISA for TNF-alpha in primary DC treated with LPS; assay type: cell-based, mice
Source text: While the inventors provide evidence that GL26 tumor cells and TLR ligands activate DC2.4 cells, it is unknown if GL26 lysate activation is signaling through MyD88−/− and/or TRIF dependent pathways. It is possible that the GL26 tumor cell activation is signaling through TLRs or at least through downstream signaling molecules MyD88 and/or TRIF. Therefore, the inventors isolated primary dendritic cells from MyD88−/− and wild-type controls and exposed them to GL26 lysate and TLR ligand LPS. The inventors believe that LPS activation in MyD88−/− DC will not show up-regulation of TNF-alpha protein as measured by ELISA.

[3] = tested on: BMDC; experiment: IL-6, TNF-α and IL-12 ELISA of BMDC activated by GL26 lysate vs. TLR ligands; assay type: cell-based, C57BL/6 mice; details: FIG. 9 bottom panel, GL26 lysate plus TLR ligand
Method: Experiments were performed with at least three replicates per condition. As controls for these experiments the inventors utilized brain tissue lysate obtained from healthy C57BL/6 mice and untreated DCs. Furthermore, for each TLR ligand, the inventors utilized up to three different concentrations previously shown to activate dendritic cells in order to identify the best concentration for maximal activation of BMDC. […] However, TLR ligands alone consistently promote increases the dependent variables measured to a greater degree than TLR ligands with tumor lysate. However, it is likely that activation by TLR ligands alone would not prime T cells to be tumor antigen specific. […] Therefore, ELISA on BMDC treated with GL26 lysate and individual TLR ligands were performed as described above. […] TNF-α and IL-12 (FIG. 9).
Primary BMDCs were isolated from the femurs of 6-10 week old C57BL/6 mice and cultured in RPMI cell culture media with GM-CSF (1000 IU/ML) and IL-4 (1000 IU/ML). BMDCs (1×10^6 cells/ml) were maintained in cell culture at 37° C., 5% CO2 and exposed to with […] GL26 freeze-thaw lysate and either TLR2 ligand (Pam3Cys, 50 μg/ml), TLR4 ligand (LPS 50 ng/ml), or TLR9 ligand (CpG ODN 1826, 5 μM) overnight (ON). Control cells were treated with […] GL26 freeze-thaw lysate only. […]

Question: For lipopolysaccharide [LPS], which “IL-6 secreted protein levels by ELISA” value [1] is on record?
Answer: The value was “reduced”.

Question: What about the “TNF-alpha protein by ELISA” value ([2]; MyD88−/− DC) of the same substance?
Answer: The value was “no up-regulation”.

Question: What about the “TNF-alpha protein by ELISA” value ([2]; wild-type DCs, compared to controls) of the same substance?
Answer: Its value is “significant up-regulations”.

Question: Which IL-12 protein production [3] does the source give for Pam3cys here?
Answer: The IL-12 protein production was “relatively limited increases”.
